In patent US9138492B2, “Particle containing hydrophobic dye having cyanine structure, and contrast agent containing the particle” (CANON KABUSHIKI KAISHA, priority 2012, dated 2015):

Experiment: Evaluation of hydrophobicity degree of dye by TLC (Rf value)
Format: physicochemical
Conditions: of the dye used; TLC glass plate RP-18, methanol containing 1 wt % lithium chloride
Protocol: (Evaluation Method for Hydrophobicity Degree of Hydrophobic Dye Having Cyanine Structure) In order to compare the hydrophobicity degrees of hydrophobic dyes each having a cyanine structure, an evaluation was performed through use of a thin-layer liquid chromatography (hereinafter may be abbreviated as TLC) method. A TLC glass plate RP-18 (manufactured by Merck) was used as a plate for development, and a methanol solution containing 1 wt % of lithium chloride was used as a developing solvent. According to an ordinary method, a dye solution was spotted on the origin, and a relative migration distance (hereinafter may be abbreviated as Rf value) was calculated based on the following equation. Rf value=Distance from origin to center of spot of component/Distance from origin to solvent front

Row | Structure (SMILES) | Rf value
1 | CN1\C(=C/C=C/C=C/C=C/C2=[N+](C)c3ccccc3C2(C)C)C(C)(C)c2ccccc21 [Chemical formula (C1), 1,1′,3,3,3′,3′-hexamethylindotricarbocyanine perchlorate] | 0.45
2 | CN1/C(=C/C=C/C=C/C=C/C2=[N+](C)c3ccccc3C2(C)C)C(C)(C)c2ccccc21 [Chemical formula (A1), 1,1′,3,3,3′,3′-hexamethylindotricarbocyanine iodide] | 0.45
3 | CN1/C(=C/C=C/C=C/C=C/C2=[N+](C)c3ccc4ccccc4c3C2(C)C)C(C)(C)c2c1ccc1ccccc21 [Chemical formula (C2), 1,1′,3,3,3′,3′-hexamethyl-4,4′,5,5′-dibenzo-2,2′-indotricarbocyanine perchlorate] | 0.31
4 | CN1/C(=C/C=C2\CCCC(/C=C/C3=[N+](C)c4ccc5ccccc5c4C3(C)C)=C2Cl)C(C)(C)c2c1ccc1ccccc21 [Chemical formula (A3), 2-[2-[2-chloro-3-[2-(1,3-dihydro-1,1,3-trimethyl-2H-benzo[e]-indol-2-ylidene)-ethylidene]-1-cyclohexen-1-yl]-ethenyl]-1,1,3-trimethyl-1H-benzo[e]indolium perchlorate] | 0.09
5 | CCN1/C(=C/C=C/C=C/C=C/C2=[N+](CC)c3ccccc3C2(C)C)C(C)(C)c2ccccc21 [Chemical formula (A2), 3H-indolium, 1-ethyl-2-[7-(1-ethyl-1,3-dihydro-3,3-dimethyl-2H-indol-2-ylidene)-1,3,5-heptatrien-1-yl]-3,3-dimethyl-, iodide] | 0.5
